The text below walks through data of patent US20030229137A1, “Methods of inhibiting osteoclast activity” (priority 2001, published 2003).

For experiment [1], the system named is osteoclast formation from PBMC. The experiment can be described thus: in vitro osteoclast formation assay (RANKL/M-CSF, MTS/TRAP). It counts as cell-based. The conditions noted are these: for IC50: Osteoclast, read-out: IC50 (osteoclast formation inhibition); for suppression of osteoclast formation under the test conditions (in words): Table 1 experiments. The procedure: Each of the kavalactones isolated in Example 1 was studied in an in vitro osteoclast formation assay. The protocol used (essentially that described in T. Yoneda et al., Endocrinology, 129(2):683-689 (1991) and H. Zhou et al., J Biol. Chem., 272, 14926 (2001)) is as follows:
(A) Osteoclast Formation Culture
1) Prepare assay wells (n=4) for each dilution of a test compound in a 384-plate. Each well contains 25 μl of 2× conc. of the compound in 10% FBS-media/0.5% DMSO.
2) Suspend PBMC in 10% FBS-media supplemented with 40 ng/ml of RANKL and 20 ng/ml of human M-CSF at 1.5 M cells/ml.
3) Vortex cell suspension and filtrate through mesh filter to remove cell aggregates.
4) Inoculate 25 μl of cell suspension to each well.
5) Centrifuge the assay plate at 1500 rpm (˜700 g) for 1 min.
6) Start osteoclast formation culture in a 5% CO2-incubator.
7) After 48 h of the culture, replenish 10 μl of 10% FBS-media supplemented with 120 ng/ml of RANKL and 60 ng/ml of M-CSF. Continue the culture until multiple osteoclasts are visible in control wells (up to 4˜5 days).
1) Add 6 μl of MTS reagent to each well and further incubate 1˜2 hrs.
2) Measure absorbance at 490 nm.
3) Discard MTS/culture media and fix cells in 60% acetone/0.38 M citrate buffer, pH 5.4 for 30 sec. Rinse cells with MQ once and air-dried.
4) Incubate each well in 25 μl of 5 mM p-nitrophenyl phosphate/tartrate/acetic acid solution for 2˜3 hrs (divert buffers from acid phosphate, leukocyte kit from Sigma #386-A).
5) Measure absorbance at 405 nm.
6) Discard p-nitrophenyl phosphate solution, rinse wells with MQ and stain cells with the acid phosphate, leukocyte kit.
7) Count multinucleate (>3) TRAP#-positive cell number under microscope. # Tartarate Resistant Acid Phosphatase

For experiment [2], the system named is AA-stimulated aggregation in human platelets. The conditions noted are these: applied five minutes before AA; cited from earlier work.
Experiment [3] concerns synthesis of PGE2 in human platelets. The conditions noted are these: applied five minutes before AA; cited from earlier work.
In experiment [4] the test system is synthesis of TXA2 in human platelets. The conditions noted are these: applied five minutes before AA; cited from earlier work.
Experiment [5] has as its system ATP release in human platelets. The conditions noted are these: applied five minutes before AA; cited from earlier work.
[6] abbreviates: protocol of Example 2, PBMC with RANKL and M-CSF.

For the compound `COc1cc(/C=C/c2ccccc2)oc(=O)c1` [desmethoxyyangonin], the IC50 in experiment [1] (setting [6]) came out at 32 µM.

With `COC1=CC(=O)O[C@@H](CCc2ccccc2)C1` [dihydrokawain], in experiment [1], the “relative osteoclast formation inhibitory activity among the six kavalactones” value is reported as “relatively higher osteoclast formation inhibitory activity”. Moreover, the concentration for half-maximal inhibition (IC50) in experiment [1] (setting [6]) worked out at 10 µM. In addition, in experiment [1] (at 15 μM), the inhibition of osteoclasts entry is listed as “almost complete inhibition”.

`COc1ccc(/C=C/c2cc(OC)cc(=O)o2)cc1` [yangonin]: the “relative osteoclast formation inhibitory activity among the six kavalactones” value in experiment [1] is reported as “relatively higher osteoclast formation inhibitory activity”. Further, the IC50 in experiment [1] (setting [6]) turned out to be 8 µM. Moreover, the inhibition of osteoclasts entry in experiment [1] (at 10 μM) is given as “almost complete inhibition”.

Regarding `COC1=CC(=O)O[C@@H](CCc2ccc3c(c2)OCO3)C1` [dihydromethysticin], in experiment [1] (setting [6]), the concentration for half-maximal inhibition (IC50) came out at 13 µM.

For the compound `COC1=CC(=O)O[C@@H](/C=C/c2ccccc2)C1` [(+)-kawain], the IC50 in experiment [2] was 78 µM; in experiment [3], 86 µM; in experiment [4], 71 µM; in experiment [5] it was 115 µM.

Turning to “IL-4: endogeneous osteoclast formation inhibitor, control compound”, the “suppression of osteoclast formation under the test conditions (in words)” value (from here on “suppression of osteoclast formation”) in experiment [1] is given as “showed consistent activity”. The “IC50 (osteoclast formation inhibition)” value in experiment [1] (setting [6]) is below 0.001 µg/mL.

`CC/C(=C(\c1ccccc1)c1ccc(OCCN(C)C)cc1)c1ccccc1` [tamoxifen, reference compound]: the “suppression of osteoclast formation” value in experiment [1] was “showed consistent activity”.

Take `Cc1ccc(-c2cc(C(F)(F)F)nn2-c2ccc(S(N)(=O)=O)cc2)cc1` [celecoxib, reference compound]: the IC50 in experiment [1] (setting [6]) was above 100 µM.

For `COC1=CC(=O)O[C@@H](/C=C/c2ccccc2)C1` [kawain], the half-maximal inhibitory concentration (IC50) in experiment [1] (setting [6]) was found to be 28 µM.

Take `C=CC[C@@H]1/C=C(\C)C[C@H](C)C[C@H](OC)[C@H]2O[C@@](O)(C(=O)C(=O)N3CCCC[C@H]3C(=O)O[C@H](/C(C)=C/[C@@H]3CC[C@@H](O)[C@H](OC)C3)[C@H](C)[C@@H](O)CC1=O)[C@H](C)C[C@@H]2OC` [FK506, reference compound]: the IC50 in experiment [1] (setting [6]) is above 25 µg/mL.

Regarding `COC1=CC(=O)O[C@@H](/C=C/c2ccc3c(c2)OCO3)C1` [methysticin], in experiment [1], the “relative osteoclast formation inhibitory activity among the six kavalactones” value is on record as “relatively higher osteoclast formation inhibitory activity”. Further, in experiment [1] (setting [6]), the IC50 came out at 13 µM. Besides, in experiment [1] (at 15 μM), the inhibition of osteoclasts result is “almost complete inhibition”.

In the case of `CC(=O)Oc1ccccc1C(=O)O` [aspirin, reference compound], in experiment [1] (setting [6]), the IC50 is above 100 µM. The “suppression of osteoclast formation” value in experiment [1] is “do not suppress osteoclast formation”. In addition, in experiment [1] (at 25 μM), the inhibition of osteoclasts entry is on record as “no inhibition”.

In general, IC50 refers to the concentration that gives 50% inhibition.
